According to ChEMBL document CHEMBL3526144 (Drug Metab Dispos, 2011):

Columns and labels:
[1] = tested on: CYP3A4.16 and CYP3A4.1; assay: Ratio of Ki for CYP3A4.16 (unknown origin) to Ki for CYP3A4.1 (unknown origin); conditions: human
[2] = Inhibition of CYP3A4.7 (unknown origin)-mediated testosterone 6beta-hydroxylation incubated for 10 mins prior to NADPH addition measured after 20 mins by HPLC-UV analysis
[3] = Inhibition of CYP3A4.16 (unknown origin)-mediated testosterone 6beta-hydroxylation incubated for 10 mins prior to NADPH addition measured after 20 mins by HPLC-UV analysis
[4] = Inhibition of CYP3A4.18 (unknown origin)-mediated testosterone 6beta-hydroxylation incubated for 10 mins prior to NADPH addition measured after 20 mins by HPLC-UV analysis
[5] = tested on: CYP3A4.7 and CYP3A4.1; assay: Ratio of Ki for CYP3A4.7 (unknown origin) to Ki for CYP3A4.1 (unknown origin); format: ADME; conditions: human
[6] = tested on: CYP3A4.2 and CYP3A4.1; assay: Ratio of Ki for CYP3A4.2 (unknown origin) to Ki for CYP3A4.1 (unknown origin); format: ADME; conditions: human
[7] = Inhibition of CYP3A4.2 (unknown origin)-mediated testosterone 6beta-hydroxylation incubated for 10 mins prior to NADPH addition measured after 20 mins by HPLC-UV analysis
[8] = Inhibition of CYP3A4.1 (unknown origin)-mediated testosterone 6beta-hydroxylation incubated for 10 mins prior to NADPH addition measured after 20 mins by HPLC-UV analysis

Ki [2]: 179 nM
Ki [3]: 41 nM
Ki [4]: 82 nM
Ki [7]: 45 nM
Ki [8]: 76 nM
Structure (SMILES): CCC(C)n1ncn(-c2ccc(N3CCN(c4ccc(OCC5COC(Cn6cncn6)(c6ccc(Cl)cc6Cl)O5)cc4)CC3)cc2)c1=O (stereo not drawn) [ITRACONAZOLE]
selectivity ratio [1]: 0.54
selectivity ratio [5]: 2.4
selectivity ratio [6]: 0.59
